Test system: Phytophthora infestans
Test: microbe, parasite or virus in culture
Type: cell-based
Conditions: in Secale cereale, 168 h, read-out: control compared to the untreated check

SMILES	inhibition of growth at 30 ppm [%]
CSc1nccnc1OCC(=O)N1CCC(c2nc(C3=NOC(c4c(Cl)ccc(F)c4F)C3)cs2)CC1 (stereo not shown) [Compound 147, 1-(4-(4-(5-(6-chloro-2,3-difluorophenyl)-4,5-dihydroisoxazol-3-yl)thiazol-2-yl)piperidin-1-yl)-2-((3-(methylthio)pyrazin-2-yl)oxy)ethan-1-one]	≥ 70
O=C(COc1cnc(C(F)(F)F)cn1)N1CCC(c2nc(C3=NOC(c4c(Cl)cccc4Cl)C3)cs2)CC1 (stereo not shown) [Compound 88, 1-(4-(4-(5-(2,6-dichlorophenyl)-4,5-dihydroisoxazol-3-yl)thiazol-2-yl)piperidin-1-yl)-2-((5-(trifluoromethyl)pyrazin-2-yl)oxy)ethan-1-one]	≥ 70
CSc1nccnc1OCC(=O)N1CCC(c2nc(C3=NOC(c4cc(Cl)ccc4Cl)C3)cs2)CC1 (stereo not shown) [Compound 149, 1-(4-(4-(5-(2,5-dichlorophenyl)-4,5-dihydroisoxazol-3-yl)thiazol-2-yl)piperidin-1-yl)-2-((3-(methylthio)pyrazin-2-yl)oxy)ethan-1-one]	≥ 70
COc1ccnc(OCC(=O)N2CCC(c3nc(C4=NOC(c5c(O)cccc5Cl)C4)cs3)CC2)n1 (stereo not shown) [Compound 83, 1-(4-(4-(5-(2-chloro-6-hydroxyphenyl)-4,5-dihydroisoxazol-3-yl)thiazol-2-yl)piperidin-1-yl)-2-((4-methoxypyrimidin-2-yl)oxy)ethan-1-one]	≥ 70
N#Cc1cccc(Cl)c1C1CC(c2csc(C3CCN(C(=O)COc4nccc(C(F)(F)F)n4)CC3)n2)=NO1 (stereo not shown) [Compound 45, 3-chloro-2-(3-(2-(1-(2-((4-(trifluoromethyl)pyrimidin-2-yl)oxy)acetyl)piperidin-4-yl)thiazol-4-yl)-4,5-dihydroisoxazol-5-yl)benzonitrile]	≥ 70
COc1nc(OC)nc(OCC(=O)N2CCC(c3nc(C4=NOC(c5c(Cl)cccc5C(F)(F)F)C4)cs3)CC2)n1 (stereo not shown) [Compound 105, 1-(4-(4-(5-(2-chloro-6-(trifluoromethyl)phenyl)-4,5-dihydroisoxazol-3-yl)thiazol-2-yl)piperidin-1-yl)-2-((4,6-dimethoxy-1,3,5-triazin-2-yl)oxy)ethan-1-one]	≥ 70
COc1ccnc(OCC(=O)N2CCC(c3nc(C4=NOC(c5c(Cl)cccc5C(F)(F)F)C4)cs3)CC2)n1 (stereo not shown) [Compound 82, 1-(4-(4-(5-(2-chloro-6-(trifluoromethyl)phenyl)-4,5-dihydroisoxazol-3-yl)thiazol-2-yl)piperidin-1-yl)-2-((4-methoxypyrimidin-2-yl)oxy)ethan-1-one]	≥ 70
COc1nccnc1OCC(=O)N1CCC(c2nc(C3=NOC(c4c(Cl)cccc4Cl)C3)cs2)CC1 (stereo not shown) [Compound 30, 1-(4-(4-(5-(2,6-dichlorophenyl)-4,5-dihydroisoxazol-3-yl)thiazol-2-yl)piperidin-1-yl)-2-((3-methoxypyrazin-2-yl)oxy)ethan-1-one]	≥ 70
COc1ncc(OCC(=O)N2CCC(c3nc(C4=NOC(c5c(O)cccc5Cl)C4)cs3)CC2)cn1 (stereo not shown) [Compound 138, 1-(4-(4-(5-(2-chloro-6-hydroxyphenyl)-4,5-dihydroisoxazol-3-yl)thiazol-2-yl)piperidin-1-yl)-2-((2-methoxypyrimidin-5-yl)oxy)ethan-1-one]	≥ 70
O=C(COc1ccnc(C(F)(F)F)n1)N1CCC(c2nc(C3=NOC(c4c(F)cccc4Cl)C3)cs2)CC1 (stereo not shown) [Compound 20, 1-(4-(4-(5-(2-chloro-6-fluorophenyl)-4,5-dihydroisoxazol-3-yl)thiazol-2-yl)piperidin-1-yl)-2-((2-(trifluoromethyl)pyrimidin-4-yl)oxy)ethan-1-one]	≥ 70
CSc1nccnc1OCC(=O)N1CCC(c2nc(C3=NOC(c4c(Cl)cccc4Cl)C3)cs2)CC1 (stereo not shown) [Compound 148, 1-(4-(4-(5-(2,6-dichlorophenyl)-4,5-dihydroisoxazol-3-yl)thiazol-2-yl)piperidin-1-yl)-2-((3-(methylthio)pyrazin-2-yl)oxy)ethan-1-one]	≥ 70
COc1cc(OCC(=O)N2CCC(c3nc(C4=NOC(c5c(Cl)cccc5OS(C)(=O)=O)C4)cs3)CC2)ncn1 (stereo not shown) [Compound 160, 3-chloro-2-(3-(2-(1-(2-((6-methoxypyrimidin-4-yl)oxy)acetyl)piperidin-4-yl)thiazol-4-yl)-4,5-dihydroisoxazol-5-yl)phenyl methanesulfonate]	≥ 70
COc1ncc(OCC(=O)N2CCC(c3nc(C4=NOC(c5c(F)cccc5F)C4)cs3)CC2)cn1 (stereo not shown) [Compound 139, 1-(4-(4-(5-(2,6-difluorophenyl)-4,5-dihydroisoxazol-3-yl)thiazol-2-yl)piperidin-1-yl)-2-((2-methoxypyrimidin-5-yl)oxy)ethan-1-one]	≥ 70
N#Cc1ccnc(OCC(=O)N2CCC(c3nc(C4=NOC(c5c(F)cccc5Br)C4)cs3)CC2)n1 (stereo not shown) [Compound 117, 2-(2-(4-(4-(5-(2-bromo-6-fluorophenyl)-4,5-dihydroisoxazol-3-yl)thiazol-2-yl)piperidin-1-yl)-2-oxoethoxy)pyrimidine-4-carbonitrile]	≥ 70
CS(=O)(=O)Oc1ccc(F)c2c1COC(c1csc(C3CCN(C(=O)COc4nccnc4C(F)(F)F)CC3)n1)OC2 (stereo not shown) [Compound 154, 9-fluoro-3-(2-(1-(2-((3-(trifluoromethyl)pyrazin-2-yl)oxy)acetyl)piperidin-4-yl)thiazol-4-yl)-1,5-dihydrobenzo[e][1,3]dioxepin-6-yl methanesulfonate]	≥ 70
COc1ccnc(OCC(=O)N2CCC(c3nc(C4=NOC(c5c(F)cccc5Br)C4)cs3)CC2)n1 (stereo not shown) [Compound 44, 1-(4-(4-(5-(2-bromo-6-fluorophenyl)-4,5-dihydroisoxazol-3-yl)thiazol-2-yl)piperidin-1-yl)-2-((4-methoxypyrimidin-2-yl)oxy)ethan-1-one]	≥ 70
COc1ncc(OCC(=O)N2CCC(c3nc(C4=NOC(c5c(Cl)cc(Cl)cc5Cl)C4)cs3)CC2)cn1 (stereo not shown) [Compound 133, 2-((2-methoxypyrimidin-5-yl)oxy)-1-(4-(4-(5-(2,4,6-trichlorophenyl)-4,5-dihydroisoxazol-3-yl)thiazol-2-yl)piperidin-1-yl)ethan-1-one]	≥ 70
COc1ccnc(OCC(=O)N2CCC(c3nc(C4=NOC(c5c(Cl)ccc(F)c5F)C4)cs3)CC2)n1 (stereo not shown) [Compound 63, 1-(4-(4-(5-(6-chloro-2,3-difluorophenyl)-4,5-dihydroisoxazol-3-yl)thiazol-2-yl)piperidin-1-yl)-2-((4-methoxypyrimidin-2-yl)oxy)ethan-1-one]	≥ 70
CS(=O)(=O)Oc1cccc(Cl)c1C1CC(c2csc(C3CCN(C(=O)COc4cncc(C(F)(F)F)n4)CC3)n2)=NO1 (stereo not shown) [Compound 57, 3-chloro-2-(3-(2-(1-(2-((6-(trifluoromethyl)pyrazin-2-yl)oxy)acetyl)piperidin-4-yl)thiazol-4-yl)-4,5-dihydroisoxazol-5-yl)phenyl methanesulfonate]	≥ 70
CSc1nccnc1OCC(=O)N1CCC(c2nc(C3=NOC(c4c(F)cccc4Br)C3)cs2)CC1 (stereo not shown) [Compound 141, 1-(4-(4-(5-(2-bromo-6-fluorophenyl)-4,5-dihydroisoxazol-3-yl)thiazol-2-yl)piperidin-1-yl)-2-((3-(methylthio)pyrazin-2-yl)oxy)ethan-1-one]	≥ 70
O=C(COc1nccc(C(F)(F)F)n1)N1CCC(c2nc(C3=NOC(c4c(O)cccc4Cl)C3)cs2)CC1 (stereo not shown) [Compound 85, 1-(4-(4-(5-(2-chloro-6-hydroxyphenyl)-4,5-dihydroisoxazol-3-yl)thiazol-2-yl)piperidin-1-yl)-2-((4-(trifluoromethyl)pyrimidin-2-yl)oxy)ethan-1-one]	≥ 70
COc1cncc(OCC(=O)N2CCC(c3nc(C4=NOC(c5c(Cl)cccc5C(F)(F)F)C4)cs3)CC2)n1 (stereo not shown) [Compound 102, 1-(4-(4-(5-(2-chloro-6-(trifluoromethyl)phenyl)-4,5-dihydroisoxazol-3-yl)thiazol-2-yl)piperidin-1-yl)-2-((6-methoxypyrazin-2-yl)oxy)ethan-1-one]	≥ 70
CSc1nccnc1OCC(=O)N1CCC(c2nc(C3=NOC(c4c(Cl)cccc4C#N)C3)cs2)CC1 (stereo not shown) [Compound 146, 3-chloro-2-(3-(2-(1-(2-((3-(methylthio)pyrazin-2-yl)oxy)acetyl)piperidin-4-yl)thiazol-4-yl)-4,5-dihydroisoxazol-5-yl)benzonitrile]	≥ 70
O=C(COc1nccc(C(F)(F)F)n1)N1CCC(c2nc(C3=NOC(c4c(Cl)cccc4C(F)(F)F)C3)cs2)CC1 (stereo not shown) [Compound 84, 1-(4-(4-(5-(2-chloro-6-(trifluoromethyl)phenyl)-4,5-dihydroisoxazol-3-yl)thiazol-2-yl)piperidin-1-yl)-2-((4-(trifluoromethyl)pyrimidin-2-yl)oxy)ethan-1-one]	≥ 70
COc1ncc(OCC(=O)N2CCC(c3nc(C4=NOC(c5c(Cl)cccc5OS(C)(=O)=O)C4)cs3)CC2)cn1 (stereo not shown) [Compound 130, 3-chloro-2-(3-(2-(1-(2-((2-methoxypyrimidin-5-yl)oxy)acetyl)piperidin-4-yl)thiazol-4-yl)-4,5-dihydroisoxazol-5-yl)phenyl methanesulfonate]	≥ 70
N#Cc1ccnc(OCC(=O)N2CCC(c3nc(C4=NOC(c5cc(Cl)ccc5Cl)C4)cs3)CC2)n1 (stereo not shown) [Compound 152, 2-(2-(4-(4-(5-(2,5-dichlorophenyl)-4,5-dihydroisoxazol-3-yl)thiazol-2-yl)piperidin-1-yl)-2-oxoethoxy)pyrimidine-4-carbonitrile]	≥ 70
COc1cncnc1OCC(=O)N1CCC(c2nc(C3=NOC(c4c(Cl)cccc4C(F)(F)F)C3)cs2)CC1 (stereo not shown) [Compound 80, 1-(4-(4-(5-(2-chloro-6-(trifluoromethyl)phenyl)-4,5-dihydroisoxazol-3-yl)thiazol-2-yl)piperidin-1-yl)-2-((5-methoxypyrimidin-4-yl)oxy)ethan-1-one]	≥ 70
O=C(COc1nccc(C(F)(F)F)n1)N1CCC(c2nc(C3=NOC(c4c(Cl)cccc4Cl)C3)cs2)CC1 (stereo not shown) [Compound 47, 1-(4-(4-(5-(2,6-dichlorophenyl)-4,5-dihydroisoxazol-3-yl)thiazol-2-yl)piperidin-1-yl)-2-((4-(trifluoromethyl)pyrimidin-2-yl)oxy)ethan-1-one]	≥ 70
